A word on the pIC50: it is the IC50 on a negative log10 scale, so that one unit is a factor of ten.

Data set [1] is described as follows: Toxicity in LPS-induced activated rat Microglia cells assessed as LDH release at 0.1 to 10 uM. A general note: LDH in the medium is a marker of cell lysis.
Data set [2] relates to MDA-MB-231. The experiment in a line: Antimigratory activity against human MDA-MB-231 cells assessed cell migration level at 30 uM by wound healing assay. It counts as functional.
Data set [3] relates to Microglia. The data set can be described thus: Anti-neuroinflammatory activity in LPS-induced activated rat Microglia cells assessed as reduction in super oxide anion radical generation at 10 uM. The format is functional.
Data set [4] has as its system MDA-MB-231. The experiment in a line: Antimigratory activity against human MDA-MB-231 cells assessed cell migration level at 10 uM by wound healing assay. It counts as functional.
Data set [5] relates to MDA-MB-231. The experiment in a line: Cytotoxicity against human MDA-MB-231 cells at 10 to 30 uM. It counts as cell-based. Conditions: mda-mb-231, 30 µM.
Data set [6] has as its system Microglia. The data set can be described thus: Anti-neuroinflammatory activity in LPS-induced activated rat Microglia cells assessed as reduction in TXB2 release at 10 uM. The format is functional.
Data set [7] can be described thus: Growth inhibition of human NCI60 cells assessed as mean cell growth at 10 uM after 48 hrs by SRB assay. It counts as functional. Set-up: scale not given: the % may be the effect or the level left.
The test system of the next data set is SK-MEL-5. The data set can be described thus: Growth inhibition of human SK-MEL-5 cells assessed as cell growth at 10 uM after 48 hrs by SRB assay. The format is functional. Conditions: SK-MEL-5, 48 h, read-out: Activity. Background: In SRB staining, fixed cells bind dye roughly in proportion to their protein.
Data set [8] can be described thus: Anti-neuroinflammatory activity in LPS-induced activated rat Microglia cells assessed as reduction in TXB2 release. It counts as functional.
Another data set has as its system MDA-MB-468. The experiment in a line: Growth inhibition of human MDA-MB-468 cells assessed as cell growth at 10 uM after 48 hrs by SRB assay. The format is functional. Conditions: MDA-MB-468, 48 h, read-out: Activity.
Another data set relates to PC-3. The experiment in a line: Growth inhibition of human PC3 cells assessed as cell growth at 10 uM after 48 hrs by SRB assay. Conditions: PC-3, 48 h, read-out: Activity. The format is functional.
A further data set has as its system HL-60(TB). The data set can be described thus: Growth inhibition of human HL-60(TB) cells assessed as cell growth at 10 uM after 48 hrs by SRB assay. Conditions: HL-60, 48 h, read-out: Activity. The format is functional.
Another data set relates to K562. The experiment in a line: Growth inhibition of human K562 cells assessed as cell growth at 10 uM after 48 hrs by SRB assay. It counts as functional. Conditions: K562, 48 h, read-out: Activity.
The next data set concerns T47D. The experiment in a line: Growth inhibition of human T47D cells assessed as cell growth at 10 uM after 48 hrs by SRB assay. Conditions: read-out: Activity. The format is functional.
Another data set concerns MCF7. The data set can be described thus: Growth inhibition of human MCF7 cells assessed as cell growth at 10 uM after 48 hrs by SRB assay. It counts as functional. Conditions: MCF7, 48 h, read-out: Activity.
The next data set has as its system Malme-3M. The experiment in a line: Growth inhibition of human MALME-3M cells assessed as cell growth at 10 uM after 48 hrs by SRB assay. It counts as functional. As to conditions: read-out: Activity.
The subject of the next data set is RPMI-8226. The data set can be described thus: Growth inhibition of human RPMI8226 cells assessed as cell growth at 10 uM after 48 hrs by SRB assay. It counts as functional. As to conditions: RPMI-8226, 48 h, read-out: Activity.
Data set [9] can be described thus: Growth inhibition of human UACC62 cells assessed as cell growth at 10 uM after 48 hrs by SRB assay. It counts as functional. Conditions: UACC-62, 48 h, read-out: Activity.
In a further data set the test system is M14. The experiment in a line: Growth inhibition of human M14 cells assessed as cell growth at 10 uM after 48 hrs by SRB assay. The format is functional. Conditions: M14, 48 h, read-out: Activity.
The nature of data set [10]: Anti-neuroinflammatory activity in LPS-induced activated rat Microglia cells assessed as reduction in super oxide anion radical generation. It counts as functional.
Data set [11] can be described thus: Toxicity in LPS-induced activated rat Microglia cells assessed as LDH release at 10 uM.

pIC50: −log10 of the molar value. The source made the active and inactive calls. The rule behind the calls is not given here.

`COc1ccc2c(c1)[C@@H]1[C@H](CC2)OC(=O)[C@H]1c1ccccc1` (relative stereo): the Activity result was “Non-toxic” in data set [1], 45.7% in the data set with MDA-MB-231 [2], 100% in the data set with MDA-MB-231 [4] and “Non-toxic” with MDA-MB-231 [5]. Besides, the inhibition result in the data set on Microglia [3] and with Microglia [6] was “inactive” in each case.

For `COc1ccc2c(c1)C1=C(CO)C(=O)OC1CC2` (centres undefined), the Activity result in data set [1] is “Non-toxic”; in the data set on MDA-MB-231 [2], 61%; in the data set on MDA-MB-231 [4], 81.8%; in the data set on MDA-MB-231 [5], “Non-toxic”. Further, the inhibition result with Microglia [3] and in the data set with Microglia [6] was “inactive” each time.

In the case of `COc1ccc2c(c1)C1=C(c3ccccc3)C(=O)OC1CC2` (centres undefined), the Activity in data set [7] is recorded as 65.7%; in data set [1], “Non-toxic”; with MDA-MB-231 [2] it was 53.2%; in the data set on MDA-MB-231 [4] it was 76.7%; in the data set on MDA-MB-231 [5], “Non-toxic”. Further, the growth at 10 µM in the data set with SK-MEL-5 amounted to 48.7%; with MDA-MB-468 it was 27.4%; with PC-3, 32%; with HL-60(TB) it was 53%; in the data set on K562 it was 42.1%; in the data set on T47D, 30.9%. Also, the growth at 10 µM in the data set on MCF7 was determined as 59.5%; in the data set on Malme-3M, 35.9%; with RPMI-8226, 18.1%; in data set [9] it was 35.4%; with M14 it was 64.9%. Moreover, the pIC50 in data set [8] was 6.00. The inhibition entry in the data set with Microglia [3] was “inactive”.

Take `COc1cccc2c1CC[C@@H]1OC(=O)[C@H](C)[C@H]21`: the Activity entry in data set [1] was “Non-toxic”; with MDA-MB-231 [2] it was 68.4%; in the data set with MDA-MB-231 [4] it was 87.6%; in the data set on MDA-MB-231 [5], “Non-toxic”. Further, the inhibition result in the data set with Microglia [3] and with Microglia [6] was “inactive” each time.

As to `COc1ccc2c(c1)C1=C(C)C(=O)OC1C[C@H]2O` (some centres undefined), the Activity result is “Non-toxic” in [1], 42.5% with MDA-MB-231 [2], 51.6% in the data set with MDA-MB-231 [4] and “Non-toxic” in the data set with MDA-MB-231 [5]. Besides, the inhibition entry in the data set on Microglia [3] and in the data set on Microglia [6] was “inactive” throughout.

`COc1ccc2c(c1)C1=C(C)C(=O)OC1CC2` (centres undefined): the Activity is 73.9% in data set [7]; “Non-toxic” in [1]; 47.8% with MDA-MB-231 [2]; 71.4% in the data set on MDA-MB-231 [4]; “Non-toxic” in the data set with MDA-MB-231 [5]. Also, the growth at 10 µM with SK-MEL-5 turned out to be 65.8%; in the data set on MDA-MB-468 it was 40.8%; with PC-3, 43%; in the data set on HL-60(TB) it was 74.2%; in the data set on K562, 54.2%; in the data set with T47D, 64.3%. Moreover, the growth at 10 µM with MCF7 amounted to 65.2%; in the data set on Malme-3M, 35.4%; in the data set with RPMI-8226, 20.7%; in data set [9], 57.1%; with M14 it was 63.7%. In addition, the inhibition entry in the data set on Microglia [3] and with Microglia [6] was “inactive” each time.

As to `COc1ccc2c(c1)C1=C(c3ccccc3)C(=O)OC1C[C@H]2O` (some centres undefined), the Activity result in data set [1] is reported as “Non-toxic”; with MDA-MB-231 [2], 45.9%; in the data set with MDA-MB-231 [4] it was 54.4%; in the data set on MDA-MB-231 [5], “Non-toxic”. Moreover, the inhibition result in the data set with Microglia [3] and in the data set on Microglia [6] was “inactive” in each case.

`C=CCN1C(=O)C(c2ccccc2)=C2c3cc(OC)ccc3CCC21` (centres undefined): the Activity is listed as 59.8% in data set [7]; “Non-toxic” in [1]; 32.9% in the data set on MDA-MB-231 [2]; 47.8% in the data set with MDA-MB-231 [4]; “Non-toxic” in the data set on MDA-MB-231 [5]. Also, the growth at 10 µM is 40.9% with SK-MEL-5; 36.3% in the data set with MDA-MB-468; 25.7% in the data set with PC-3; 34.9% with HL-60(TB); 28.3% in the data set with K562; 40.7% with T47D. The growth at 10 µM in the data set on MCF7 was found to be 61.5%; with Malme-3M it was 0.19%; with RPMI-8226, 11.5%; in data set [9], 35.3%; in the data set with M14 it was 46.7%. Moreover, the negative logarithm of the IC50 (pIC50) in [10] and in [8] was 6.00 throughout. The inhibition entry with Microglia [3] and in the data set with Microglia [6] was “inactive” throughout.

With `NC(=O)Cc1ccccc1`, the Activity result in data set [1] is “Non-toxic”; in the data set with MDA-MB-231 [2], 70.4%; in the data set with MDA-MB-231 [4] it was 94.5%; in the data set with MDA-MB-231 [5] it was “Non-toxic”. The inhibition result in the data set on Microglia [3] and with Microglia [6] was “inactive” in each case.

On to `COc1ccc2c(c1)[C@@H]1[C@H](CC2)OC(=O)[C@@H]1c1ccccc1` (relative stereo), for which the Activity result in [1] was “Non-toxic”; in the data set with MDA-MB-231 [2], 48.4%; in the data set on MDA-MB-231 [4] it was 90.7%; with MDA-MB-231 [5], “Non-toxic”. The inhibition entry with Microglia [3] and in the data set with Microglia [6] was “inactive” throughout.

`COc1cccc2c1CCC1OC(=O)C(C)=C21` (centres undefined): in data set [11], the Activity entry is “Toxic”.

Values taken from ChEMBL document CHEMBL3217605, “Synthesis, microbial transformation, and pharmacological evaluation of 4,5-dihydronaphtho[2,1-b]furan-2-ones and related analogues” (Medchemcomm, 2013).
